# Measured values taken from PMC3135650 (Molecular pharmaceutics, 2009).
# Entries after “also recorded” stand apart in the source; their conditions may differ.
# How the values were obtained:
# Bcrp [1] = biological target: T1, Bcrp (Rattus norvegicus, UniProt Q80W57); assay: Biliary excretion; format: in vitro ADME; conditions: 10 min; for Nitrofurantoin BEI, % of control (Ad-siNT) / Nitrofurantoin in vitro Clbiliary, % of control (Ad-siNT): 5 µM nitrofurantoin
# T1 sequence (Q80W57 1-657): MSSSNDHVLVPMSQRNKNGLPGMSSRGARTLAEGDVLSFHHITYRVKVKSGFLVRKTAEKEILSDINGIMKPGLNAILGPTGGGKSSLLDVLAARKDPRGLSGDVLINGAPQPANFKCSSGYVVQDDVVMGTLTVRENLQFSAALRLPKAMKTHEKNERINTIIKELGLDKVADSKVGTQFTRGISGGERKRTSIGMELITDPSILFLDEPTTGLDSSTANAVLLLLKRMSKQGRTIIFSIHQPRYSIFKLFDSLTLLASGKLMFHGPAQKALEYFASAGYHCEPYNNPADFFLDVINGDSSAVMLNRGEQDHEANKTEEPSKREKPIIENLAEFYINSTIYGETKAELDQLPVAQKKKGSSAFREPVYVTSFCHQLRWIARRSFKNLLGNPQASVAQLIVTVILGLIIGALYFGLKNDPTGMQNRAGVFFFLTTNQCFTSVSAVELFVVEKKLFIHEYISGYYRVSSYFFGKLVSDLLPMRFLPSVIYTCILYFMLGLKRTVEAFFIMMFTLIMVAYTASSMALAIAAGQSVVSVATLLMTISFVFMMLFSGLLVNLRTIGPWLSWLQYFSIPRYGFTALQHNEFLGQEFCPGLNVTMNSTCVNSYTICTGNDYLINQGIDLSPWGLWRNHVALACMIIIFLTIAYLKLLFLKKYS
# [2] = tested on: sandwich-cultured rat hepatocytes (SCRH); conditions: 10-min incubation; digoxin 1 µM, nitrofurantoin 5 µM
# BCRP [3] = conditions: read-out: Ki or IC50 values for BCRP; cited from earlier work
# Caco-2 cells = conditions: 10 µM FTC; cited from earlier work
# P-gp = conditions: 2 µM GF120918, SCRH; cited from earlier work
# Bcrp [4] = biological target: T1, Bcrp; assay: GF120918 inhibition of nitrofurantoin biliary excretion in SCRH
# Bcrp [5] = conditions: cited from earlier work
# [6] = 2 µM GF120918, 5 µM nitrofurantoin, 10 min, day 4 SCRH
# [7] = 2 µM GF120918, 5 µM nitrofurantoin, 10 min, day 4 SCRH, data not shown
# [8] = day 4 Ad-si01Bcrp-infected SCRH
# [9] = day 6 Ad-si01Bcrp-infected SCRH
smiles,measurement,setting,value
C[C@H]1O[C@@H](O[C@H]2[C@@H](O)C[C@H](O[C@H]3[C@@H](O)C[C@H](O[C@H]4CC[C@@]5(C)[C@H](CC[C@@H]6[C@@H]5C[C@@H](O)[C@]5(C)[C@@H](C7=CC(=O)OC7)CC[C@]65O)C4)O[C@@H]3C)O[C@@H]2C)C[C@H](O)[C@@H]1O [digoxin],"Effect of Bcrp knockdown on digoxin accumulation (cells + BC or cells), BEI or in vitro Clbiliary","Bcrp [1]; Ad-si01Bcrp-infected day 4 or day 6 SCRH, 1 µM digoxin",unaffected; also recorded: did not affect
same,"Accumulation in cells + BC and cells, day 6 versus day 4 SCRH",[2],lower
"COc1ccc2c3c([nH]c2c1)[C@H](C=C(C)C)N1C(=O)[C@@H]2CCCN2C(=O)[C@@H]1C3 [FTC, fumitremorgin C]",IC50,BCRP [3],300 to 1300 nM
same,Effect on digoxin transport in Caco-2 cells,Caco-2 cells,inhibited
"COc1cc2c(cc1OC)CN(CCc1ccc(NC(=O)c3cccc4c(=O)c5cccc(OC)c5[nH]c34)cc1)CC2 [GF120918, N-(4-[2-(1,2,3,4-tetrahydro-6,7-dimethoxy-2-isoquinolinyl)ethyl]-phenyl)-9,10-dihydro-5-methoxy-9-oxo-4-acridine carboxamide]","P-gp-mediated biliary excretion of digoxin, % of control",P-gp,~ 25 % of control
same,Effect on cellular accumulation of nitrofurantoin,Bcrp [4]; [6],significantly increased
same,Effect on nitrofurantoin accumulation in cells + BC,Bcrp [4]; [6],did not affect
same,"Nitrofurantoin BEI in presence of inhibitor, % of control",Bcrp [4]; [7],~ 8 % of control
same,"Nitrofurantoin in vitro Clbiliary in presence of inhibitor, % of control",Bcrp [4]; [7],~ 8 % of control
same,Inhibition of nitrofurantoin biliary excretion,"Bcrp [4]; 2 µM GF120918, SCRH",almost completely inhibited
O=C1CN(/N=C/c2ccc([N+](=O)[O-])o2)C(=O)N1 [nitrofurantoin],Nitrofurantoin accumulation in cells + BC versus control (Ad-siNT),"Bcrp [1]; Ad-si01Bcrp-infected SCRH, 5 µM",similar
same,Cellular accumulation of nitrofurantoin versus control (Ad-siNT),"Bcrp [1]; Ad-si01Bcrp-infected day 4 and day 6 SCRH, 5 µM",increased markedly; also recorded: significantly increased
same,"Nitrofurantoin BEI, % of control (Ad-siNT)",Bcrp [1]; [8],~ 24 % of control
same,"Nitrofurantoin in vitro Clbiliary, % of control (Ad-siNT)",Bcrp [1]; [8],~ 27 % of control
same,"Nitrofurantoin BEI, % of control (Ad-siNT)",Bcrp [1]; [9],11 % of control
same,"Nitrofurantoin in vitro Clbiliary, % of control (Ad-siNT)",Bcrp [1]; [9],14 % of control
same,Nitrofurantoin biliary excretion in Abcg2-knockout mice,Bcrp [5],almost completely abolished
